Assay results published in a melting point compilation (Tetko et al.; mined from patent text by program, amines drawn as free bases though some values may be those of a salt).
Starred links: 1 amine or outer side, 2 acyl side, 3 side chain; linkers in the order of their positions; H or OH if unused. Residues, ends and D or L forms follow the SMILES beside them. *: point of attachment. 4Abz = Nc1ccc(C(=O)O)cc1; CO = O=C([*:1])[*:2]; CF3 = FC(F)(F)*

SMILES	melting point [°C]
CC(C)C[C@@H]1NC(=O)O[C@H]1CCS(=O)(=O)CCc1ccccc1	100 to 101
CCCCCCCCCCCC=CC(O)C(COC1OC(CO)C(O)C(O)C1O)NC(=O)CCCCCCCCCCCCCCCCC (configuration not stated)	209 to 210
O=C1c2ccc([N+](=O)[O-])cc2C(=O)N1c1ccc(C2(c3ccc(N4C(=O)c5ccc([N+](=O)[O-])cc5C4=O)cc3)c3ccccc3-c3ccccc32)cc1	360 to 363
CC(=O)Nc1c([N+](=O)[O-])cc(C)c(OC(F)F)c1C	184 to 185
CCCc1nc(C=NNC(=O)OCC)c(C)[nH]1	184 to 188
CC(=O)SC(CC(=O)c1cccc(Cl)c1)C(=O)O (configuration not stated)	85 to 86
O=C(/C=C/c1ccc(C(F)(F)F)cc1-c1ccncc1)Nc1ccc2[nH]ccc2c1	229 to 234
Cc1cnc(-c2cc(C(F)(F)F)nn2C)nc1Oc1cc(C(F)(F)F)nn1C	113
O=C(Cl)c1ccc(Cl)c(S(=O)(=O)NC2CCCCC2)c1	119
CC(=O)Oc1cccc2c1C13CCN(C)C(C2)C1CCC(=O)C3 (single isomer, unassigned; (-))	96 to 97
N#CC1(Nc2ccccc2)CCN(C2C3CCCC2CCC3)CC1 (configuration not stated)	168
S=c1c2c(ncn2Cc2cccnc2)c2cccnc2n1-c1ccccc1	222 to 224
CCOC(=O)N1CCc2nnc(NN=C(C)C)cc2C1	171 to 174
Oc1nc2ccc(Cl)cc2nc1O	> 260
COC1=C(OC)C(=O)C(N=[N+]=[N-])=C(C)C1=O	48 to 50
CCOC(=O)c1cn2c3c(c(Cl)c(F)cc3c1=O)C(=O)CC2C (single isomer, unassigned; (-))	252 to 254
C=CS(=O)(=O)c1ccc(/C(=C\C2CCCCC2)C(=O)OC)cc1Cl	105 to 108
CCOC(=O)c1ccc(N=C(Nc2ccc(C(=O)OCC)cc2)c2ccc(-c3ccccc3)cc2)cc1	152 to 160
COc1cc(CC#N)c(OC)c(C)c1C	98 to 99
C/C(=C\CNc1ncnc2nc(N(C)C)[nH]c12)CO	245 to 249

SMILES	melting point [°C]
CC1(C)C=C(C(=O)NC2COC(C)(C)OCC2O)C(C)(C)N1 (configuration not stated)	125 to 127
Cn1nc(C(F)F)c(C=O)c1F	68
Cc1cccc2c1C(=O)N(C)Cc1c(I)ncn1-2	106 to 108
CN(C(CCn1c(=O)cc(-c2ccccc2)[nH]c1=O)C(=O)NO)S(=O)(=O)c1ccc(Oc2ccccc2)cc1 (configuration not stated)	179 to 181
c1cnc(-c2cccnc2)nc1	51 to 52
N=C(NO)c1cccc(-c2ccc(O)c(-c3nc4cc(C(=N)NO)ccc4[nH]3)c2)c1	352 to 355
Fc1c(F)c(-c2c(F)c(F)c(Oc3cccc4ccccc34)c(F)c2F)c(F)c(F)c1Oc1cccc2ccccc12	189 to 191
N#CCCOCc1cc(Cl)nc(Cl)c1	65.5
O=C(NCCC[PH](=O)O)OCc1ccccc1	53 to 55
O=C(Nc1nccs1)c1c(C(F)(F)F)nc2c(C(F)(F)F)cccc2c1O	258
Cc1cccc(CC(=O)NC(C)C)c1NC(=O)c1cc(C(F)(F)F)nn1-c1ncccc1Cl	206 to 207
CC(OC(C)c1ncn2c1CN(C)C(=O)c1cc(Cl)ccc1-2)c1ncn2c1CN(C)C(=O)c1cc(Cl)ccc1-2 (configuration not stated)	193 to 194
CO[C@@H]1CNCC[C@H]1NC(=O)c1cccc(C(F)(F)F)c1 (relative stereo)	100
CCOC(=O)c1oc(C(C)(C)C)cc1N	44 to 45
CC(C)(C)c1cc(=S)cc(C(C)(C)C)o1	108
COc1ccc(C=O)cc1CCl	55 to 57
O=c1c2c(Cc3ccccc3)n[nH]c2c2cnccc2n1-c1ccccc1	284 to 287
O=C(OCc1ccccc1)C1=CCC2C(C(O)c3ccccc3)C(=O)N12 (configuration not stated)	124
C=CCn1nc(-c2ccc(S(C)(=O)=O)cc2)c(-c2ccc(F)cc2)c1C(F)(F)F	116 to 119
CCC1CC(=O)C=C2CCC3C4CCC(=O)C4(C)CCC3C21C (configuration not stated)	168

SMILES	melting point [°C]
CCNC(=O)N1CC(Oc2ccc(C(F)(F)F)cc2)C1	94 to 96
CC(C)C(C(=O)O)n1nc(Br)c(Br)c1Br (configuration not stated)	92 to 95
N#CC1(c2ccccc2)CCN(C(=O)N2CCCc3ccccc32)CC1	53 to 59
O=C(Nc1ccc(F)cc1F)c1cccc(Oc2cccc(C(F)(F)F)c2)n1	110 to 112
O=C(O)C(Cc1ccccc1)NCc1ccccc1 (configuration not stated)	219 to 220
Cc1ccccc1Oc1cc(Cl)ccc1C(=O)O	158 to 159
Cc1cc2c(Cl)nc(N)nc2o1	255 to 257
CCC1c2ccc(F)n2-c2ccc(Br)cc2N1S(=O)(=O)c1ccc(O)cc1 (configuration not stated)	160 to 162
CCCCCCCCCCCC(=O)N[C@@H](C)C(=O)N[C@H](CCC(=O)OCc1ccccc1)C(N)=O	169
O=S(=O)(O)c1cccc(Nc2ccnc3cc(Cl)ccc23)c1	> 300
CS(=O)(=O)Nc1ccc(CC(=O)O)cc1	145 to 147
NC(=O)NN=Cc1ccc(Oc2cccnc2)cc1	160 to 162
Oc1ccc(Cc2nc(-c3cccs3)c[nH]2)cc1	189 to 191
COC(=O)Nc1cc(F)c(Br)cc1I	101 to 102
CC(C)C(NC(=O)Nc1ccc(C(=O)NCC(=O)O)cc1)C(=O)N1CCCC1C(=O)NC(C(=O)C(F)(F)F)C(C)C (stereo not drawn) ({Gly-4Abz-CO}-Val-Pro-Val-CF3; configuration not given here)	98 to 128
O=C(Nc1ccc(C(F)(F)F)cc1)N[C@@H](Cc1ccccc1)C(=O)OCc1ccccc1	155 to 157
CC1(C)CC(N2C(=O)C=CC2=O)CC(C)(C)N1OC1CCCCC1	135 to 139
O=Cc1ccc(O)cn1	134 to 135

Second part, the molecule after the results:

melting point [°C]	SMILES
123 to 125	CCCc1nc(C)c(C(=O)OCC)n1Cc1ccc2oc(-c3ccccc3NS(=O)(=O)C(F)(F)F)c(Br)c2c1
214 to 215	CC(=O)Nc1ccc(-c2ccc(C(C)=O)o2)cc1
168	CCCCNC(=N)c1ccc2[nH]c(=O)[nH]c2c1
110	CCCCCN1CC[C@@H](c2ccccc2C(F)(F)F)[C@H](CO)C1 (racemic)
90 to 92	CCCNC1CN(C(=O)Nc2ccc(C(F)(F)F)cc2)N=C1c1ccc(OC(F)F)c(C)c1 (configuration not stated)
254 to 255	CC1(Cn2c(=O)oc3ccc(-c4ccccc4)cc32)Cn2cc([N+](=O)[O-])nc2O1 (configuration not stated)
130	COc1ccc(CN(C)CCCOc2ccc(NC(=O)c3cccc4c(=O)c5ccccc5[nH]c34)cc2)cc1OC
102 to 104	COc1ccc(C(CS(C)(=O)=O)N2C(=O)c3cccc(NC(C)=O)c3C2=O)cc1OCC1CC1 (configuration not stated)
135 to 137	CCCOc1cc2c(c3c(=O)c(-c4ccc(OC)cc4)cn(CCCN4CCOCC4)c13)CCC2
131 to 133	Nc1ccnc(CSCCN2C(=O)c3ccccc3C2=O)n1
124 to 126	COc1ccc(-c2cc(=O)n(C)c(OC(C)C)n2)cc1OC
162 to 163	O=C(Oc1cccc(C(F)(F)F)c1)c1cc2cc(CCl)ccc2oc1=O
232 to 234	O=S1(=O)CCN2C=CC=C(c3ccc(Oc4ccc(Cl)cc4)cc3)C2=N1
142	CCCCCN1C(=O)C(CCc2nnn[nH]2)(NC(=O)c2ccc(Cl)c(Cl)c2)c2ccccc21 (configuration not stated)
113 to 114	Cc1ccc(N(C(=O)CCl)c2c(C)cccc2Cl)cc1
175 to 177	CN1Cc2ccccc2C(OCC(O)Cn2ccnc2)c2c1nc1ccc(Br)cc1c2Cl (configuration not stated)
223 to 226	Cn1cc(-c2ccccc2)c(=O)c(-c2c(Cl)cccc2Cl)c1
184 to 185	CC(C)(C)OC(=O)C(C1NC(C(=O)OCc2ccccc2)C2(CCN(c3ccccc3)CC2)S1)N1C(=O)c2ccccc2C1=O (configuration not stated)
147 to 148	CCOC(=O)c1c(CCl)nc2cc(OC)c(OC)cc2c1-c1ccc(OC)c(OC)c1
232	Cc1cc(-c2ccc(Cl)cc2)nc(-c2ccnc(-c3ccc(S(N)(=O)=O)s3)c2)n1

melting point [°C]	SMILES
169 to 171	O=C(O)Cc1ccc2c(c1)C(=O)c1cc(Cl)ccc1CO2
69 to 71	O=C1c2ccccc2C(=O)N1OCC/C=C/c1cccs1
145 to 148	CCCSc1ccc2c3c(cccc13)C(=O)N2
210 to 212	COc1cc(C(=O)N(C(C)C)C2CCCCC2)ccc1Cn1c(C)nc2cccnc21
160	COc1cccc(Oc2ccc3ccc(N)nc3n2)c1
126 to 128	Cc1c(C)c(N2CCN(c3ccnn3C)CC2)c(C)c2c1OC(C)(C)C2
163 to 166	COc1ccc(C(=O)C(=O)c2cccc(-c3ccc(S(C)(=O)=O)cc3)c2-c2ccccc2)cc1Cl
176 to 178	CCOC(=O)c1cn(CC)c2cc(C3CCCCC3)ccc2c1=O
166 to 168	CCCCC(Cc1ccc(OCCNC(=O)c2ccc(-c3ccc(OC)cc3)cc2)cc1)C(=O)O (configuration not stated)
131 to 133	Nc1sc2c(c1C(=O)c1ccsc1)CCN(Cc1ccccc1)C2
152 to 163	CCc1nc2cc(C(N)=O)c(Cl)cc2n1-c1ccc(CCNC(=O)NS(=O)(=O)c2ccc(C)cc2)cc1
122 to 125	O=C(Nc1cccc2c(=O)cc(C(=O)O)oc12)c1ccc2c(c1)CC(CSCc1ccccc1)O2 (configuration not stated)
182 to 184	COc1ccc(/C(C)=C\c2ccc(C(=O)O)cc2)cc1C(C)(C)C
184 to 187	COc1ccc2c(c1)C(OC(C)C)=C(C(=O)O)S2=O (configuration not stated)
231 to 232	Oc1ccc(-c2ncc3ncc(Cl)cc3n2)cc1
211 to 214	FC(F)c1nc2ccccc2n1-c1nc(N2CCOCC2)nc(N2CCOCC2)n1
145	CCN(CC)C(=O)c1cc2ccc(Cl)cc2c(-c2ccccc2Cl)n1
158 to 160	COC(=O)C1Oc2ccc(C)cc2Cc2cc(C)ccc2O1
122	CCOC(=O)c1ccc(NCC(C)Oc2ccc(Cl)c3ccccc23)cc1 (configuration not stated)
